Data as given in article PMC7852560 (Neuropsychopharmacology, 2020).

Key:
CB1R [1] = biological target: T1, CB1R (Homo sapiens, UniProt P21554); design: beta-galactosidase enzyme fragment (EFC; ProLink by own knowledge); method as in PMID 16113085, PMID 18029031; conditions: cited from earlier work
CB1R [2] = biological target: T1, CB1R; design: beta-galactosidase enzyme fragment (EFC; ProLink by own knowledge); method as in PMID 16113085, PMID 18029031; conditions: cited from earlier work; remark: listed apart in the source
Male C57Bl/6J mice = assay: Cannabinoid-induced tetrad; assay type: in vivo; conditions: 10 mg/kg i.p., 30 min prior
Experimental: Male C57Bl/6J mice (PD > 70) were tested on the cannabinoid-induced tetrad, as previously described.
(i.p.) before testing. The tetrad was performed (1) catalepsy, (2) locomotion, (3) temperature, and (4) analgesia. Catalepsy: time (s) spent immobile with front paws on a plastic rod (1.5cm diameter), at a height of 4.5-cm from the table, before adjusting abnormal posture (either front paws being removed from the bar, or back paws climbing onto bar). Locomotion: horizontal activity (cm) was immediately measured in an open field test, following catalepsy, for 15-min. in 1-min bins. Temperature: rectal temperature (°C) was measured immediately following open-field testing, using a thermometer with rectal probe (Labcorp, Fisher, Waltham, MA). Analgesia: latency (s) to withdraw tail from hot water bath (52 °C), to assess tail-flick antinociception, was completed immediately following temperature readings.

CB1R [3] = biological target: T1, CB1R; assay: cell-based; assay type: cell-based; conditions: hCB1R CHO cells, data not shown
Experimental: The cAMP BRET experiments were performed as previously described. Briefly, hCB1R HEK293 cells were transfected with 5 µg/10 cm dish of the CAMYEL biosensor using polyethylenimine. After 24 h, the cells were plated into white 96-well plates (PerkinElmer) at a density of 60,000 cells/well.
Cyclic AMP accumulation was measured using a DiscoverX HitHunter® cAMP Assay for Small Molecules (DiscoverX, Fremont, CA). hCB1R CHO cells were seeded at a density of 40,000 cells/well in 96-well white plates and grown overnight at 37 °C, 5% CO2 in a humidified incubator. […] Vehicle concentration was 1% DMSO, 0.1% BSA. Following agonist incubation, 15 µl of cAMP antibody reagent and 60 µl of working cAMP detection solution (containing 19 parts cAMP lysis buffer, 5 parts Substrate Reagent 1, 1 part Substrate Reagent 2 and 25 parts of cAMP Solution D) were added to all wells. Assay plates were incubated in the dark for 1 hr at room temperature, followed by addition of 60 µl cAMP solution A to all wells and incubation for 3 hr at room temperature in the dark. Plates were read using a GloMax Discover plate-reader (Promega, Madison, WI).

GluN1KD mice [4] = assay: Pre-pulse inhibition in GluN1KD mice; assay type: in vivo; conditions: ABM300 10 mg/kg, OLA 1 mg/kg i.p.
Experimental: Pre-Pulse Inhibition (PPI): PPI of the acoustic startle response was measured on day 3, via SR-LAB equipment and software from San Diego Instruments. Accelerometers were calibrated to 700±5 mV and output voltages were amplified and analyzed for voltage changes using SR Analysis (San Diego Instruments, San Diego, CA, USA), and exported as an excel file. Background white noise was maintained at 65dB. PPI was measured in a 30-min test with 80 randomized trials of: (1) 10 trials pulse alone (2) 10 trials pre-pulse alone (for each pre-pulse), (3) 10 trials pre-pulse plus pulse (for each pre-pulse), and (4) 10 trials no pulse. 5 pulse alone trials were performed before and after the 80 trials, totaling 90 trials per run. The pre-pulse (4dB, 8dB, or 16dB) was presented 100ms prior to the startle pulse […]. The inter-stimulus interval (ISI) was randomized between 5 and 20s. Experimental mice were placed in a cylindrical tube on a platform in a soundproof chamber. Mice were allowed to acclimatize in the chamber and to the background noise for 300s, followed by 5 consecutive pulse alone trials, then by 80 randomized trials (as described above) and then 5 consecutive pulse alone trials. Pre-pulse inhibition was measured as a decrease in the amplitude of startle response to a 100dB acoustic startle pulse, following each pre-pulse (4dB, 8dB and 16dB).

GluN1KD mice [5] = assay: Open-field test in GluN1KD mice; conditions: ABM300 10 mg/kg, OLA 1 mg/kg i.p., 30 min before test
Male Sprague Dawley rats = assay: Conditioned avoidance response (CAR); assay type: in vivo; conditions: rats, ABM300 10 mg/kg, olanzapine 1 mg/kg i.p. daily
Experimental: Male Sprague Dawley rats (PD>63) were trained on a CAR protocol and responding following drug exposure was determined. […] Animals were trained to learn a house light (CS) as predictive of an avoidable 0.6mA scrambled foot shock (US). Each session consisted of 50 trials and animals avoided >70% of trials on the final acquisition session were tested for CAR during vehicle baseline, drug exposure, and re-emergence. In addition to CAR testing, both temperature and catalepsy were recorded in these animals (measure of potential CB1R agonism). Temperature: recorded on first day of drug exposure, prior to injection and 60-90-min. following drug exposure.

C57Bl/6J mice = assay type: in vivo; conditions: 10 mg/kg i.p., 30 min before test, compared to vehicle
Description: (i.p.) before testing. The EPM was composed of 4 opaque-white arms (2 opposite arms closed, 2 opposite arms open), arranged in a plus shape, with an open center. The dimensions were as follows; maze elevation (38.7cm), open arm (L:30.5 cm, W:5 cm, H:0 cm), closed arm (L:30.5 cm, W:5 cm, H:15.2 cm) and center (5 cm x 5 cm). The experiment mouse was placed in the center of the maze and allowed to freely explore the maze for 8-min (50lux), while being tracked with an overhead camera. Open and closed arm times were recorded and collected by Biobserve Viewer3 software. The percentage of time spent in the open arms as compared to closed arms and center time was calculated and expressed as a percent of time spent in the open or closed arms of the maze.

T1 sequence (P21554 whole entry, the tested form may be a part): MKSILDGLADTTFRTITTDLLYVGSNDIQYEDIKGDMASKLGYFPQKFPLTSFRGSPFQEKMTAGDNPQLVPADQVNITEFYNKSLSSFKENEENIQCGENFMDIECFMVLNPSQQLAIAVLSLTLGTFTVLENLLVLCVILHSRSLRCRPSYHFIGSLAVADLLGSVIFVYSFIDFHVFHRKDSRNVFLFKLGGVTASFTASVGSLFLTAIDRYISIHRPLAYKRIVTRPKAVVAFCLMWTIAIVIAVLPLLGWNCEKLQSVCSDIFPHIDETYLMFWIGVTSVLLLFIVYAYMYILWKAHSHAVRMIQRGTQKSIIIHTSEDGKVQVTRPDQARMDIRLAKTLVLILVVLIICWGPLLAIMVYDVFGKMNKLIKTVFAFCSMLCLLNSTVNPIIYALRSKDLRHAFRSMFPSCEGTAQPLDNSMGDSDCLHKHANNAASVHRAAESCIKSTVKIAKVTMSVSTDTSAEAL

## CCc1c(C(=O)NCCc2ccc(N3CCCCC3)cc2)[nH]c2ccc(Cl)cc12 [Org275]
CB1R [1]
  CB1R agonist-mediated signaling: acts as an inhibitor
CB1R [2]
  Bmax of [3H] CB1R agonist binding: increases the Bmax

## CCCCCc1cc(O)c2c(c1)OC(C)(C)[C@@H]1CCC(C)=C[C@@H]21 [THC, Δ^9-tetrahydrocannabinol, reference compound]
Male C57Bl/6J mice
  tetrad: catalepsy-induced immobility time: produced effects
  tetrad: percent inhibition of locomotor activity (15 min): produced effects
  tetrad: rectal temperature: produced effects
  tetrad: tail withdrawal (% MPE): produced effects

## CCCCCCC(C)(C)c1ccc([C@@H]2C[C@H](O)CC[C@H]2CCCO)c(O)c1 [CP55,940, reference compound]
CB1R [3]
  effect on forskolin-stimulated cAMP accumulation: inhibited

## Cc1cc2c(s1)Nc1ccccc1N=C2N1CCN(C)CC1 [olanzapine, reference compound]
GluN1KD mice [4]
  acoustic startle response: did not respond
  sensorimotor gating deficits (PPI; 4, 8, 16 dB): did not respond
GluN1KD mice [5]
  exaggerated stereotypic activity: Effects of ABM300 are similar to those seen with olanzapine
  novelty-induced hyperactivity (distance traveled): Effects of ABM300 are similar to those seen with olanzapine
  rearing behavior (vertical exploration): Effects of ABM300 are similar to those seen with olanzapine
Male Sprague Dawley rats
  escape failures in CAR: neither ABM300 nor olanzapine affected escape failures
  escape responding during CAR: enhanced escape responding
Male Sprague Dawley rats; 30 min prior
  avoidance behavior in CAR: attenuated avoidance behavior

## Cc1c(C(=O)NN2CCCCC2)nn(-c2ccc(Cl)cc2Cl)c1-c1ccc(Cl)cc1 [rimonabant, reference compound]
C57Bl/6J mice
  time spent in the open arms (EPM): significantly reduced
